# Key:
# DMD myotubes = experiment: Spontaneous calcium activity (calcium waves) in DMD patient myotubes, Fluo-4 AM, confocal microscopy; format: cell-based, human; details: for reduction in the amplitude of the calcium waves (oscillations): 100 μM; for reduction in the number of myotubes with spontaneous calcium activity: DMD myotubes preincubated, 100 μM (FIG. 5D, 8D)
# Description: (A) Characterization of spontaneous calcium waves in DMD myotubes. Healthy myotubes mostly show low activity (13% of myotubes), while 49% of untreated DMD myotubes show significant spontaneous calcium activity. The amplitude of calcium oscillations in untreated DMD myotubes is increased by 60% compared with healthy myotubes. (B) Examples of trace recordings of a representative region of interest in myotubes and DMDs. (C) Amplitude of spontaneous calcium oscillations in DMD myotube cultures in the presence of modulators of the CD38 enzyme pathway. […] Similarly, 8-Bromo-cADPR (cADPR antagonist, 100 μM, n=48) and NED-19 (NAADP antagonist, 100 μM, n=167) reduce by 40% the amplitude of calcium oscillations in DMD myotubes. […] The t-test was used with a significance level set at 0.05, with a *P<0.05; **P<0.01, ***P<0.001, n=cell number.
# (A) DMD myotubes loaded with a calcium probe (Fluo 4). Examples of trace recordings of a representative region of interest in control DMD myotubes (B) and treated for 30 min with NAADP (100 μM) (C). […] The chi square (proportion of active cells) and t-test (mean peak amplitude) were used with a significance level set at 0.05, with a *P<0.05 ***P<0.001.
# In parallel with mouse cardiomyocyte studies, two lines of human skeletal myotubes (a patient cell line with DMD and a control line) were used. Human myotubes are particularly suitable for evaluating a pharmacological tool from a therapy perspective. The inventors first tested the CZ-27, the NED-19 antagonist of NAADP (the most efficient messenger produced by CD38), and 8-bromo-cADP-ribose (a cADP-ribose antagonist produced by CD38. The cells were loaded with Fluo-4 AM and recorded by confocal microscopy.
# The amplitude of the calcium waves was reduced by 40% (see FIG. 5A) compared to that of the untreated DMD myotubes. […] A 40% reduction in the amplitude of the calcium waves is also observed when the cells are treated with 100 μM of 8-Bromo-cADPR or NED-19 (see FIG. 5C). When cultures of DMD myotubes were preincubated with NED-19, the number of myotubes with spontaneous calcium activity was reduced in a dose-dependent manner for concentrations of 2 to 300 μM (60% to 100 μM reduction) (see FIG. 5D). In addition, when cultures of DMD myotubes were preincubated with NAADP at 100 μM, the number of myotubes with spontaneous calcium activity was reduced (75% reduction with 100 μM NAADP) (see FIG. 8D).
# mdx mouse cardiomyocytes = experiment: Spontaneous calcium activity (spikes and calcium waves) of mdx mouse cardiomyocytes; format: cell-based
# Description: FIG. 4: Frequency of spontaneous spikes and calcium waves in WT, mdx and mdx/CD38^−/− mouse cardiomyocytes. 1-way-ANOVA test with a Bonferroni correction. Significance level set at 0.05, with a *P<0.05; **P<0.01, ***P<0.001. (A) The spontaneous calcium activity of cardiomyocytes (calcium spikes and waves) of the mdx/CD38^−/− mouse is reduced by 80% compared to the values of mdx mice. (B) The application of the CD38 CZ-27 antagonist to mdx mouse cardiomyocytes reduces the frequency of spikes by about 70%.
# Evaluation of the Spontaneous Calcium Activity of Mouse Cardiomyocytes:
# In the mdx cardiomyocyte, it was shown that the calcium reserves of the sarcoplasmic reticulum were reduced, probably due to Ca^2+ leakage through RyRs that are abnormally sensitized.
# In order to study the impact of the absence of CD38 on these parameters, the different parameters of spontaneous spike activity and calcium waves were studied. […] The increased frequency of these spontaneous calcium events may lead to arrhythmias (when they spread to the whole heart tissue) as well as to a long-term cardiac hypertrophy associated with a change in the Ca^2+-dependent gene expression.
# The protective effect of the CD38 deletion in mice was then observed by comparing cardiomyocytes of the double-mutant model with cardiomyocytes of mdx mice. The spontaneous calcium activity of mdx/CD38^−/− cardiomyocytes is very small compared to mdx (spikes and calcium waves, see FIG. 4A). […] CD38 deletion in mdx/CD38^−/− favor its protective role in DMD, with the reversal of many deleterious parameters in mdx mice (spontaneous calcium spikes and waves, sensitization of RyRs).
# [1] = DMD myotubes, vs untreated DMD myotubes (FIG. 5C)
structure (smiles),measurement,setting,value
"N=c1c2nc(Br)n3c2ncn1[C@H]1O[C@H](COP(=O)(O)OP(=O)(O)OC[C@H]2O[C@@H]3C(O)C2O)C(O)C1O (some centres unmarked) [8-Bromo-cADPR, 8-bromo adenosine diphosphate cyclic ribose]",reduction in the amplitude of the calcium waves (oscillations),DMD myotubes; [1],40%
"CCCCOP(=O)(O)OC[C@@H]1O[C@H]([n+]2cccc(C(N)=O)c2)C(F)C1O (stereo partly drawn) [CZ-27, 2′-deoxy-2′-fluoro-β-nicotinamide arabinofuranoside-5′-(n-butyl) phosphate]",amplitude of spontaneous calcium oscillations,DMD myotubes; DMD myotubes (FIG. 5C),strongly reduces
same,"reduction in the amplitude of the calcium waves, dose-dependent","DMD myotubes; DMD myotubes preincubated with 10, 50 and 100 μM, vs untreated DMD myotubes (FIG. 5C)",up to 80%
same,frequency of spontaneous calcium spikes,mdx mouse cardiomyocytes; mdx mouse cardiomyocytes (FIG. 4B),reduction in spikes frequency
same,reduction of the frequency of spontaneous calcium spikes,"mdx mouse cardiomyocytes; mdx mouse cardiomyocytes, application of the compound (FIG. 4B)",about 70%
"Nc1ncnc2c1ncn2[C@@H]1O[C@H](COP(=O)(O)OP(=O)(O)OC[C@H]2O[C@@H]([n+]3cccc(C(=O)[O-])c3)[C@H](O)[C@@H]2O)[C@@H](O)[C@H]1OP(=O)(O)O [NAADP, nicotinic acid adenine dinucleotide phosphate]",reduction in the number of myotubes with spontaneous calcium activity,DMD myotubes,75%
same,percentage of cells exhibiting spontaneous calcium activity,"DMD myotubes; DMD myotubes treated 30 min, 100 μM (FIG. 8D)",greatly reduced
same,amplitude of the spontaneous calcium oscillations,"DMD myotubes; DMD myotubes treated 30 min, 100 μM (FIG. 8E)",strongly reduced
"COc1ccc([C@H]2N[C@H](C(=O)O)Cc3c2[nH]c2ccccc32)cc1CN1CCN(c2ccccc2F)CC1 [NED-19, (1R, 3S)-1-[3-[[4-(2-fluorophenyl)piperazin-1-yl]methyl]-4-methoxyphenyl]-2,3,4,9-tetrahydro-1H-pyrido[3,4-b]indole-3-carboxylic acid]",reduction in the number of myotubes with spontaneous calcium activity,DMD myotubes,60%
same,reduction in the amplitude of the calcium waves (oscillations),DMD myotubes; [1],40%
same,percentage of cells with spontaneous calcium activity,"DMD myotubes; DMD myotubes, 2-300 μM (FIG. 5D)",strongly reduced dose-dependently
same,reduction in spontaneous calcium wave activity,mdx mouse cardiomyocytes; mdx mouse cardiomyocytes (FIG. 4C),about 90%
same,number of cardiomyocytes exhibiting spontaneous calcium activity,mdx mouse cardiomyocytes; mdx mouse cardiomyocytes incubated with compound (not shown),significant reduction
same,frequency of spontaneous calcium waves,"mdx mouse cardiomyocytes; mdx mouse cardiomyocytes, rare cases of spontaneous activity in presence of compound (FIG. 4C)",greatly reduced
